Measured values as given in article PMC5342389, “PIM kinases as therapeutic targets against advanced melanoma” (Oncotarget, 2016).

Tests used:
pAKTSer473 = assay: Western blot for AZD6482 target inhibition; assay type: cell-based, human; settings: increasing doses, 72 h
Experimental: Since PIM kinases and AKT share common downstream effectors, we hypothesized that inhibiting both PIM and PI3K activity would prevent pathway compensation, enhance melanoma cell death compared to each single agent, and maintain low activity of AKT and STAT3.
Supplementary Figure S5: AZD6482 target inhibition. Increasing doses of the PI3Kβ inhibitor AZD6482 were used to treat melanoma cells for 72 h before lysates were collected and probed for pAKTSer473 and total protein. Hsp90 was used as a loading control. […]
combination. To facilitate statistical analysis of synergy effects, we used a grid-like design of constant ratio drug combinations. Viability was calculated relative to DMSO controls in each plate and the mean of three experiments provided. Synergy was calculated for combination experiments using the Bliss formula. […]
observed combination effects. […]

[1] = tested on: collagen-embedded melanoma spheroids; assay: LIVE/DEAD viability/cytotoxicity assay on 3D spheroids; settings: SGI-1776 [5 μM] or AZD6482 [10 μM] as single agents or in combination, 72 h
AML xenografts = settings: cited from earlier work
PIM1 = settings: cited from earlier work
[2] = in vivo
[3] = tested on: 1205Lu, WM983B, and 451Lu; assay: Western blot of adherent (2D) melanoma cells; assay type: cell-based, human; settings: 10 μM, 12 h
[4] = tested on: Melanoma cells and normal fibroblasts; assay: alamarBlue proliferation assay, adherent cultures, 72 h; assay type: cell-based, human; settings: increasing doses, normalized to DMSO
[5] = tested on: Melanoma cell lines and normal fibroblasts; assay: propidium iodide staining (cell death); assay type: cell-based; settings: 10 μM, 72 h
1205Lu tumors = assay: Western blot of mouse tumor lysates; assay type: in vivo, mice; settings: tumor lysates 17 days following treatment
Excerpt: Error bars represent SEM, n = 10 mice. […] Histone H3 served as loading control.
We next determined the expression levels of PIM1, −2 and −3 in two mouse tumors from the in vivo combination experiment shown in Figure 6A. Tumor samples were collected following 3 days of treatment and PIM expression levels were not consistently changed across treatment groups; however, the presence of PLX4720 correlated with higher PIM2 levels (Figure 6B). To understand signaling changes leading to our observed drug response in vivo, western blot analyses were then conducted on tumor lysates isolated 17 days following treatment (Figure 6C).
For immunoblots, proteins were extracted as described in [49], and 50 μg of cell extract were resolved on a 10% polyacrylamide-SDS gel before being transferred onto a polyvinylidene membrane (BioRad, Hercules, CA). All primary antibodies were purchased from Cell Signaling Technologies (Beverly, MA), except for the PIM1 antibody, which was purchased from Abcam (Cambridge, MA). All membranes were probed with primary antibodies overnight at 4°C, then incubated with Alexa Fluor-labeled secondary antibodies (IRDye 680LT goat-anti mouse, IRDye 800CW goat-anti rabbit (LI-COR, Lincoln, NE)) for 1h and scanned with the Odyssey system (LI-COR, Lincoln, NE). […]

Compound | AKT inhibition (pAKTSer473) (pAKTSer473) | spheroid invasion and cell death (LIVE/DEAD) [1] | tumor regression (AML xenografts) | IC50 (PIM1) | total mouse weight / toxic effects [2] | levels of downstream PIM kinase signaling effectors [3] | total levels of PIM1, −2, or −3 [3] | proliferation response (alamarBlue), melanoma cell lines versus fibroblasts [4] | cell death / cytotoxicity (propidium iodide) [5] | p27Kip1 levels (1205Lu tumors)
Cc1cc([C@@H](C)Nc2ccccc2C(=O)O)c2nc(N3CCOCC3)cc(=O)n2c1 [AZD6482] | confirming AKT inhibition | inhibit spheroid invasion and cause cell death | – | – | – | – | – | – | – | –
CN1CCC(CNc2ccc3ncc(-c4cccc(OC(F)(F)F)c4)n3n2)CC1 [SGI-1776] | – | inhibit spheroid invasion and cause cell death | concentration-dependent tumor regressions | […] | minimal effects on total mouse weight | downregulation of pBADS136, pSTAT3Y705, and pAKTS473 levels were observed | does not dramatically reduce total levels | […] | significantly increased cell death in the melanoma cell lines compared to normal fibroblasts | elevated p27Kip1 levels
